According to patent US5108754A, “Orthomolecular method of treating sickle cell disease” (priority 1991, dated 1992):
Where “and” joins values, the source holds several entries; their conditions need not be identical. Identical values can stand only once.

Experiments:
rats = test system: rats
Procedure: The compound prepared according to Example 1 was subjected to a toxicity study in accordance with techniques well-known in the art. The study was conducted on rats over a three-day testing period.

[1] = prior-art antisickling agent; cited from earlier work
[2] = second day, 0.01% dosage, individual rats #A-#D, listed as active agent

Compound	rats killed after administration of the drug formulation (rats; rats, three days, 0.001%, 0.01%, 0.1% of rat weight on days 1, 2, 3)	toxicity (rats; rats, three-day study, 0.001%, 0.01%, 0.1% of rat weight)	Body Fluid Concentraton 0.01% (rats; [2])	Weight After (rats; [2])	Weight Before (rats; [2])	Weight Change (rats; [2])	toxicity [1]
Cc1c(C)c2c(c(C)c1OC(=O)C(N)CC[S+](C)CC1OC(n3cnc4c(N)ncnc43)C(O)C1O)CCC(C)(CCCC(C)CCCC(C)CCCC(C)C)O2.[I-] (stereo not drawn) [Example 1, α-(S-adenosylmethionine)-O-tocopherol]	none of the rats tested were killed	substantially non-toxic	0.14 and 0.07	28.5 grams and 26.4 grams and 29.5 grams	28.3 grams and 26.3 grams and 29.4 grams	0.2 grams and 0.1 grams	–
N#CO [potassium cyanate]	–	–	–	–	–	–	rather high toxicity
